Data as given in the supplement of paper PMC10307832.

Columns and labels:
Test in all cases: relative viability (nuclei count vs DMSO), 5 days (fraction); higher = more cells survive
Vismodegib + Alpelisib = compound: CS(=O)(=O)c1ccc(C(=O)Nc2ccc(Cl)c(-c3ccccn3)c2)c(Cl)c1 [Vismodegib] + Cc1nc(NC(=O)N2CCC[C@H]2C(N)=O)sc1-c1ccnc(C(C)(C)C(F)(F)F)c1 [Alpelisib] (partner 2 µM)
Method in brief: (§1)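 Lung cancer cell lines in 1536-well plates got either a single drug or a fixed anchor-drug dose together with five library-drug doses (not always all listed) in √10 steps, by pin tool, on the day after seeding. Nuclei were counted after 5 days, and relative viability is the treated-to-vehicle ratio of nuclei counts. Values are medians of duplicate plates.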

Ruxolitinib + Luminespib = compound: N#CC[C@H](C1CCCC1)n1cc(-c2ncnc3[nH]ccc23)cn1 [Ruxolitinib] + CCNC(=O)c1noc(-c2cc(C(C)C)c(O)cc2O)c1-c1ccc(CN2CCOCC2)cc1 [Luminespib] (partner 0.01 µM)
Method in brief: as §1

VE-821 + Palbociclib = compound: CS(=O)(=O)c1ccc(-c2cnc(N)c(C(=O)Nc3ccccc3)n2)cc1 [VE-821] + CC(=O)c1c(C)c2cnc(Nc3ccc(N4CCNCC4)cn3)nc2n(C2CCCC2)c1=O [Palbociclib] (partner 0.5 µM)
Method in brief: as §1

Vismodegib + Trametinib = compound: CS(=O)(=O)c1ccc(C(=O)Nc2ccc(Cl)c(-c3ccccn3)c2)c(Cl)c1 [Vismodegib] + CC(=O)Nc1cccc(-n2c(=O)n(C3CC3)c(=O)c3c(Nc4ccc(I)cc4F)n(C)c(=O)c(C)c32)c1 [Trametinib] (partner 0.02 µM)
Method in brief: as §1

Cell Line | relative viability (Vismodegib + Alpelisib; first compound 0.08 µM) | relative viability (Vismodegib + Alpelisib; first compound 0.253 µM) | relative viability (Vismodegib + Alpelisib; first compound 0.8 µM) | relative viability (Vismodegib + Alpelisib; first compound 2.53 µM) | relative viability (Vismodegib + Alpelisib; first compound 8 µM) | relative viability (Ruxolitinib + Luminespib; first compound 0.253 µM) | relative viability (Ruxolitinib + Luminespib; first compound 0.8 µM) | relative viability (Ruxolitinib + Luminespib; first compound 2.53 µM) | relative viability (Ruxolitinib + Luminespib; first compound 8 µM) | relative viability (VE-821 + Palbociclib; first compound 0.08 µM) | relative viability (VE-821 + Palbociclib; first compound 0.253 µM) | relative viability (VE-821 + Palbociclib; first compound 0.8 µM) | relative viability (VE-821 + Palbociclib; first compound 2.53 µM) | relative viability (VE-821 + Palbociclib; first compound 8 µM) | relative viability (Vismodegib + Trametinib; first compound 0.08 µM) | relative viability (Vismodegib + Trametinib; first compound 0.253 µM) | relative viability (Vismodegib + Trametinib; first compound 0.8 µM) | relative viability (Vismodegib + Trametinib; first compound 2.53 µM) | relative viability (Vismodegib + Trametinib; first compound 8 µM) | relative viability (Ruxolitinib + Luminespib; first compound 0.08 µM)
HCC-827 | 0.982 | 0.993 | 0.972 | 0.998 | 0.949 | 0.578 | 0.679 | 0.519 | 0.562 | 0.515 | 0.516 | 0.405 | 0.531 | 0.522 | 0.519 | 0.491 | 0.528 | 0.522 | 0.509 | –
NCI-H2405 | – | 0.81 | 0.676 | 0.603 | 0.875 | 0.654 | 0.838 | 0.481 | 0.476 | 0.533 | 0.496 | 0.541 | 0.558 | 0.408 | 0.671 | 0.616 | 0.592 | 0.598 | 0.638 | –
HOP-62 | 0.92 | 0.906 | 0.978 | 0.919 | 1.12 | 0.946 | 0.934 | 0.927 | 0.686 | 0.508 | 0.459 | 0.471 | 0.463 | 0.461 | 0.357 | 0.379 | 0.37 | 0.354 | 0.376 | 0.879
LCLC-97TM1 | – | – | 0.287 | – | 0.287 | 0.657 | 0.78 | 0.626 | 0.904 | 0.257 | 0.238 | 0.25 | 0.267 | 0.255 | 0.207 | 0.166 | 0.205 | 0.173 | 0.208 | 0.617
NCI-H3122 | 0.798 | 0.726 | 0.816 | 0.78 | 0.629 | 0.108 | 0.0859 | 0.0958 | 0.113 | 0.196 | 0.187 | 0.166 | 0.225 | 0.227 | 0.247 | 0.254 | 0.216 | 0.247 | 0.202 | 0.13
PC-14 | 0.884 | 0.888 | 1.03 | 0.907 | 0.926 | 0.181 | 0.175 | 0.171 | 0.169 | 0.648 | 0.46 | 0.455 | 0.351 | 0.169 | 0.606 | 0.65 | 0.694 | 0.659 | 0.796 | –
NCI-H2170 | 0.836 | 0.814 | 0.872 | 0.836 | 0.794 | 0.509 | 0.954 | 0.643 | 0.817 | 0.432 | 0.414 | 0.381 | 0.45 | 0.32 | 0.89 | 0.897 | 1 | 0.857 | 0.987 | 0.687
HARA | 0.833 | 0.863 | 0.817 | 0.8 | 0.788 | 0.83 | 0.897 | 0.839 | 0.342 | 0.227 | 0.29 | 0.239 | 0.279 | 0.299 | 0.749 | – | 0.613 | 0.689 | 0.659 | 0.9
COR-L 105 | 0.832 | 0.882 | 0.847 | 0.839 | 0.868 | 0.93 | 0.789 | 0.538 | 0.511 | 0.432 | 0.339 | 0.443 | 0.409 | 0.399 | 0.451 | 0.517 | 0.435 | 0.385 | 0.475 | 0.707
